Test: xn = mol fraction of the nth substance listed
Conditions: 313.15 K, Liquid, Vibrating tube method

CCCCCCCCCC [decane] + CCCO
Conditions	mass density [kg/m3]
100 kPa, x2 = 0.1391	716.51
100 kPa, x2 = 0.1907	717.9
100 kPa, x2 = 0.3001	721.57
100 kPa, x2 = 0.4326	726.91
100 kPa, x2 = 0.6863	743.48
100 kPa, x2 = 0.8711	764.1
1000 kPa, x2 = 0.3001	723.23
1000 kPa, x2 = 0.4326	728.22
1010 kPa, x2 = 0.1907	718.96
1010 kPa, x2 = 0.6863	744.97
1010 kPa, x2 = 0.8711	765.33
1020 kPa, x2 = 0.1391	717.29
2000 kPa, x2 = 0.1391	718.2
2000 kPa, x2 = 0.1907	719.85
2000 kPa, x2 = 0.8711	766.21
2010 kPa, x2 = 0.3001	724.13
2010 kPa, x2 = 0.4326	729.1
2010 kPa, x2 = 0.6863	745.85
3000 kPa, x2 = 0.1391	719.08
3000 kPa, x2 = 0.4326	730
3010 kPa, x2 = 0.1907	720.73
3010 kPa, x2 = 0.6863	746.75
3020 kPa, x2 = 0.3001	725.02
3020 kPa, x2 = 0.8711	767.09
4010 kPa, x2 = 0.1391	719.94
4010 kPa, x2 = 0.1907	721.6
4010 kPa, x2 = 0.3001	725.89
4010 kPa, x2 = 0.6863	747.62
4010 kPa, x2 = 0.8711	767.96
4020 kPa, x2 = 0.4326	730.9
5000 kPa, x2 = 0.3001	726.76
5010 kPa, x2 = 0.1391	720.8
5010 kPa, x2 = 0.1907	722.46
5020 kPa, x2 = 0.4326	731.76
5020 kPa, x2 = 0.6863	748.51
5020 kPa, x2 = 0.8711	768.83
6000 kPa, x2 = 0.1391	721.67
6000 kPa, x2 = 0.4326	732.64
6000 kPa, x2 = 0.6863	749.38
6010 kPa, x2 = 0.1907	723.31
6010 kPa, x2 = 0.8711	769.69
6020 kPa, x2 = 0.3001	727.63
7000 kPa, x2 = 0.1907	724.18
7010 kPa, x2 = 0.1391	722.52
7010 kPa, x2 = 0.6863	750.25
7020 kPa, x2 = 0.3001	728.48
7020 kPa, x2 = 0.4326	733.49
7020 kPa, x2 = 0.8711	770.55
8000 kPa, x2 = 0.3001	729.32
8000 kPa, x2 = 0.6863	751.12
8010 kPa, x2 = 0.1391	723.35
8010 kPa, x2 = 0.1907	725.03
8010 kPa, x2 = 0.4326	734.37
8010 kPa, x2 = 0.8711	771.39
9010 kPa, x2 = 0.1391	724.19
9010 kPa, x2 = 0.1907	725.85
9010 kPa, x2 = 0.3001	730.17
9010 kPa, x2 = 0.6863	751.97
9020 kPa, x2 = 0.4326	735.2
9020 kPa, x2 = 0.8711	772.23
10000 kPa, x2 = 0.6863	752.81
10010 kPa, x2 = 0.1391	724.99
10010 kPa, x2 = 0.1907	726.66
10010 kPa, x2 = 0.3001	731
10010 kPa, x2 = 0.4326	736.06
10020 kPa, x2 = 0.8711	773.07
11000 kPa, x2 = 0.1907	727.49
11000 kPa, x2 = 0.3001	731.82
11000 kPa, x2 = 0.6863	753.64
11010 kPa, x2 = 0.1391	725.82
11010 kPa, x2 = 0.8711	773.9
11020 kPa, x2 = 0.4326	736.89
12000 kPa, x2 = 0.8711	774.72
12010 kPa, x2 = 0.1907	728.3
12010 kPa, x2 = 0.3001	732.64
12010 kPa, x2 = 0.4326	737.71
12010 kPa, x2 = 0.6863	754.47
12020 kPa, x2 = 0.1391	726.61
13000 kPa, x2 = 0.1391	727.41
13000 kPa, x2 = 0.1907	729.09
13000 kPa, x2 = 0.8711	775.51
13010 kPa, x2 = 0.3001	733.44
13010 kPa, x2 = 0.4326	738.53
13010 kPa, x2 = 0.6863	755.3
14000 kPa, x2 = 0.3001	734.23
14010 kPa, x2 = 0.1391	728.19
14010 kPa, x2 = 0.4326	739.32
14010 kPa, x2 = 0.6863	756.1
14020 kPa, x2 = 0.1907	729.89
14020 kPa, x2 = 0.8711	776.33
15000 kPa, x2 = 0.6863	756.89
15010 kPa, x2 = 0.1391	728.97
15010 kPa, x2 = 0.1907	730.66
15010 kPa, x2 = 0.3001	735.01
